# In patent US10137171B2, “Methods of treatment using a pentapeptide derived from the C-Terminus of Glucagon-Like Peptide 1 (GLP-1)” (The General Hospital Corporation, priority 2011, dated 2018):
# “Also recorded” adds a separate entry of the source. Where no end group is shown, it is not given here.
# How the values were obtained:
# H4IIe hepatoma cells = test: ROS formation assay (H4IIe hepatoma cells); type: cell-based; conditions: 0.2 mM palmitate 24 hr, 100 pM peptide (FIG. 9B)
# Description: FIG. 9B is a bar graph showing inhibition of the production of ROS in H4IIe hepatoma cells. BSA n=14. palmitate n=13. 32-36/palmitate n=12. *p<0.005 palmitate vs BSA, # p<0.03 palmitate vs GLP-1(32-36)a/palmitate
# H4IIe cells were seeded in 12-well plates at a density of 1×10^4/well and incubated overnight in media containing 5.0 mM glucose. Media was then supplemented with 0.20 mM palmitate in BSA, with and without 100 pM GLP-1(32-36)amide and incubated for an additional 24 h. Intracellular ROS was measured by 5-(and 6)-carboxy-2′,7′-dichlorohydro-fluorescein diacetate (CM-H2DCFDA) (Molecular Probes) as follows. Cells were washed twice in HBSS (Hanks' Balance Salt Solution) and incubated with 10 uM CM-H2DCFDA for 45 minutes. The media were removed and cells were lysed. ROS was measured in the cell lysates using a spectrofluorometer (485 nm/535 nm). Data were normalized to values obtained from the cells treated with palmitate. BSA n=14. Palmitate n=13. 32-36/Palmitate n=12.
# diet-induced obese mice [1] = test: Dual energy X-ray absorptiometry (DXA) of lean, fat and total body mass; type: in vivo, mouse
# Excerpt: FIGS. 2A-D are bar graphs showing the results of determinations of lean, fat, and total body mass by dual X-ray absorptiometry (DXA) of mice receiving continuous infusions of the pentapeptide […] or control vehicle alone for 16 weeks. At the time of the study the mice were 39 weeks of age and on the very high fat diet for 33 weeks. 2A. Fat versus lean mass. The fat mass is 40% less in the pentapeptide infused compared to the control vehicle infused mice. *P<0.0008. […] 2B. Total body mass (lean+fat) differences in peptide infused versus vehicle control infused obese mice. *P<0.002. 2C. Fat mass expressed as the fraction of fat mass in peptide infused mice versus vehicle control infused obese mice. *P<0.0008. 2D. Fat mass expressed as the percentage of body weight, peptide-infused versus vehicle control-infused obese mice. *P<0.001. N=6 mice per group. Values are means+/−SEMs.
# Mice were anesthetized with 0.02 ml of a 2% tribromoethanol solution per gram of body weight and scanned with a dual X-ray apparatus (Lunar Piximus, GE Medical Systems, Wauwatosa, Wis.). Total, fat, and lean body mass was quantitatively determined.
# diet-induced obese mice [2] = test: Continuous osmopump infusion in very high-fat diet-induced obese mice: body weight, energy intake, Feed Efficiency; type: in vivo, mouse
# Description: The data encompass twelve weeks, from week 2 to week 14 of continuous infusions of control vehicle and GLP-1(32-36)amide. GLP-1(32-36)amide was administered to mice via mini-osmopumps (Alzet #1004) at a rate of 40 nanomoles/Kg body weight/24 hours. Male C57bl/6j mice were placed on a high fat diet (Research Diets, #D12492, 60 kcal % fat) at six weeks of age and continued for 17 weeks before starting osmopump infusions at age 23 weeks. 1A. Line graph showing time-dependent changes in body weight (BW) over fourteen weeks of infusions of control vehicle and pentapeptide GLP-1(32-36)amide. (*) p<0.05 versus vehicle control; (**) p<0.04 versus vehicle control; (***) p<0.034; (#) p<0.01; (##) p<0.004; (###) p<0.0006, 0.0007; (####) p<0.0001. 1B. N=six mice per group. Values are means+/−SEMs. *p<0.013 peptide vs. vehicle. At week two of infusions of vehicle and pentapeptide the mice weighed 37.2 and 38.2 gms (averages of six mice), respectively. N=six mice per group.
# FIG. 3 is a bar graph showing feed efficiency at the end of 12 week infusion. GLP-1(32-36)amide infusions in diet-induced obese mice lowers the Feed Efficiency index. The data are the means+/−SEMs (*p<0.06 pentapeptide vs. vehicle) of the values calculated from the […] period of infusions of control vehicle and GLP-1(32-36)amide shown in FIG. 4. The Feed efficiency (FE) is a calculation of the body weight (gms) divided by the energy intake kcal) in the food consumed. […] Basal energy expenditure in mice treated with pentapeptide is increased compared to mice treated with control vehicle. N=6 mice per group.
# Male C57bl/6 mice at […] were placed on a very high-fat diet (VHFD, 60% fat, Research Diets) for 17 weeks. At week 17 the mice on the high-fat diet, corresponding to 23 weeks of age, mini-osmopumps containing either vehicle or GLP-1(32-36)amide were implanted subcutaneously for delivery of peptide or vehicle over 16 weeks. Forty nanomoles (20 micrograms) of GLP-1(32-36) was diluted in saline containing 0.1% human serum albumin and were infused at a rate of forty nanomoles/kgBW/day for 16 weeks to achieve an estimated concentration of approximately 100 pM similar to that reported by infusions of GLP-1(7-36)amide. For infusions longer than 4 weeks additional osmopumps with peptide were implanted at the end of each 4 weeks infusion. Body weights were recorded weekly. Food consumption was assessed every 3 to 4 days by weight. Energy intake (kcal/gm BW/week) and Feed Efficiency Index (FEI) were evaluated during the infusions of vehicle or peptide. The latter provides a measure of the efficiency of caloric conversion to body weight and it is calculated by determining the grams of body weight gain per cage/Kcal of food consumed per cage, [21]. There was no observable change in the activities of the mice amongst the various experimental groups. Mouse care was conducted under approval by the MGH Institutional Animal Care Use Committee.
# [3] = after 16 weeks infusion, VHFD mice (FIG. 2A)
substance,measurement,setting,value
"LVKGRamide (LVKGR-NH2) [GLP-1(32-36)amide, pentapeptide derived from the C-terminus of the glucoincretin hormone GLP-1]",ROS production,H4IIe hepatoma cells,nearly completely normalizes
same,ROS production,H4IIe hepatoma cells; listed as GLP-1(32-36)a,inhibition
same,relative (%) fat mass compared to vehicle-treated mice (DXA),diet-induced obese mice [1]; after 16 weeks infusion (FIG. 2C),decreased
same,fat mass reduction compared to vehicle control (DXA),diet-induced obese mice [1]; [3],40%
same,lean mass change compared to vehicle control (DXA),diet-induced obese mice [1]; [3],no significant difference
same,lean mass change compared to vehicle control (DXA),"diet-induced obese mice [1]; after 16 weeks infusion, VHFD mice (FIG. 2A), listed as pentapeptide",no significant changes; also recorded: no significant difference
same,total body mass (body weight) (DXA),"diet-induced obese mice [1]; after 16 weeks infusion, vs vehicle (FIG. 2B)",decreased
same,ratio of fat mass to body weight (DXA),"diet-induced obese mice [1]; after 16 weeks infusion, vs vehicle (FIG. 2D)",decreased
same,"average weekly change in body weight gain, less than control vehicle","diet-induced obese mice [2]; VHFD mice, 40 nanomoles/kg BW/day s.c. osmopump, measured over ten weeks (FIG. 1B)",50%
same,body weight at week two of infusions,"diet-induced obese mice [2]; VHFD mice, average of six mice, vehicle 37.2",38.2 gms
same,time at which inhibition of weight gain reached statistical significance,"diet-induced obese mice [2]; VHFD mice, continuous infusion 40 nanomoles/kg BW/day (FIG. 1A)",by week five; also recorded: as early as five weeks
same,energy intake (food intake),"diet-induced obese mice [2]; VHFD mice, ten weeks of infusion, vehicle 1.11±0.025",1.15±0.030 Kcal/g body weight/week
same,Feed Efficiency decrease compared to vehicle,diet-induced obese mice [2]; VHFD obese mice (FIG. 3),approximately 50%
same,Feed Efficiency index (effect in words),"diet-induced obese mice [2]; end of 12 week infusion, p<0.06 vs vehicle (FIG. 3)",lowers
same,body weights decreased compared to vehicle control,"diet-induced obese mice [2]; end of the sixteen week infusion, high fat diet-induced obese mice",50%
